According to ChEMBL document CHEMBL1201862, “PubChem BioAssay data set” (2004):
Calls of active or inactive are those of the source.

Legend:
[1] = intracellular Trypanosoma cruzi inhibitors in host cells – cell-based, plate reader, cherry-pick samples, set 3, dose response (AID 651818); format: functional;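 further: compounds incubated with infected cells for about four days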
[2] = target: T1, Carboxy-terminal domain RNA polymerase II polypeptide A small phosphatase 1 (Homo sapiens, UniProt Q9GZU7); test: inhibitors of CTDSP1, concentration-response testing, biochemical assay, absorbance-based, actives from ultra-high-throughput screening (AID 540297); format: functional
T1 sequence (Q9GZU7 whole entry): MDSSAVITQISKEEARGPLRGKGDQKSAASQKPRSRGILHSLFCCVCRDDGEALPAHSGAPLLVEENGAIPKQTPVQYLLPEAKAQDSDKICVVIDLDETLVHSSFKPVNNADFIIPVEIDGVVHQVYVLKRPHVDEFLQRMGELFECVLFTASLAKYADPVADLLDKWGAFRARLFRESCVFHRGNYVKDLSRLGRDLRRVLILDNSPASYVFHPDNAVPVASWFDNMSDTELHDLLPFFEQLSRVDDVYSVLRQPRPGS

[3] = NIH-3T3 fibroblast cytotoxicity, dose response, cytotoxicity control, cell-based, fluorescence, Alamar Blue, secondary assay (AID 2327); format: functional;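 further: NIH-3T3 mouse fibroblasts cultured with fluconazole at 8 µg/mL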
[4] = C. albicans growth with fluconazole, confirmation, fluorescence, retest (AID 2467); format: functional, cell-based
[5] = target: T2, Microphthalmia-associated transcription factor (Homo sapiens, UniProt O75030); test: TRPM1 promoter luciferase signal decrease, dose response, MITF inhibitor project, cell-based, SK-MEL-5, cherry-picked, set 3 (AID 493073); format: functional
T2 sequence (O75030 whole entry): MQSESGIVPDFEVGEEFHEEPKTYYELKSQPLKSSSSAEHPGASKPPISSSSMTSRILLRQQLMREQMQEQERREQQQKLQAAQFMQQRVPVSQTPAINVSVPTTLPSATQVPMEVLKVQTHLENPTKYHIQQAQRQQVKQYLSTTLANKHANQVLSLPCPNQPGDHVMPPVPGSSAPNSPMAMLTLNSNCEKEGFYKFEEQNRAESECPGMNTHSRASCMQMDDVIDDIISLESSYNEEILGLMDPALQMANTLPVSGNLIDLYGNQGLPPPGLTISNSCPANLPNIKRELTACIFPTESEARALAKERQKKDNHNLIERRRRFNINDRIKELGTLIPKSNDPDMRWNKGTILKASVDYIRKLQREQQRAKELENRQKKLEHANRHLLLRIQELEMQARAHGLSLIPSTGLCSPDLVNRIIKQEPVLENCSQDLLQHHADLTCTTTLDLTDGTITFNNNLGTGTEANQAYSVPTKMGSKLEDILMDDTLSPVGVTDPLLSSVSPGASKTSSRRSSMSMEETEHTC

Cytochrome P450 2C9 = Cytochrome P450 2C9 (Homo sapiens, UniProt P11712)
[6] = cytotoxicity toward NIH3T3 fibroblasts, dose response, counter-screen, cell-based, ATP luminescence, mouse fibroblasts (AID 2010); format: functional;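 further: cells exposed to compound for about 90 hours before reading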
[7] = inhibitors of intracellular T. cruzi replication, confirmation, NIH3T3 host cells, beta-gal luminescence (AID 2044); format: functional, cell-based;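 further: intracellular parasites grown in NIH/3T3 mouse fibroblasts as host cells; luminescent beta-galactosidase reporter signal from transgenic T. cruzi replicating inside host cells; inhibitors lower the luminescence signal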
[8] = Luminescence Cell-Based Dose Retest to Confirm Inhibitors of Cancer Stem Cells. [Related pubchem assays (depositor defined):AID2717, AID2721]; format: functional; settings: Homo sapiens
Beta-galactosidase = Beta-galactosidase (Escherichia coli, UniProt Q8VNN2); test: PubChem AID 485352; format: functional
[9] = target: T3, Type-1 angiotensin II receptor (Homo sapiens, UniProt P30556); test: AT1 receptor antagonists, dose response, selectivity assay for APJ receptor antagonist project, cell-based, uHTS hits (AID 463214); format: functional;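 further: antagonist potency against angiotensin II stimulated AT1 response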
T3 sequence (P30556 whole entry): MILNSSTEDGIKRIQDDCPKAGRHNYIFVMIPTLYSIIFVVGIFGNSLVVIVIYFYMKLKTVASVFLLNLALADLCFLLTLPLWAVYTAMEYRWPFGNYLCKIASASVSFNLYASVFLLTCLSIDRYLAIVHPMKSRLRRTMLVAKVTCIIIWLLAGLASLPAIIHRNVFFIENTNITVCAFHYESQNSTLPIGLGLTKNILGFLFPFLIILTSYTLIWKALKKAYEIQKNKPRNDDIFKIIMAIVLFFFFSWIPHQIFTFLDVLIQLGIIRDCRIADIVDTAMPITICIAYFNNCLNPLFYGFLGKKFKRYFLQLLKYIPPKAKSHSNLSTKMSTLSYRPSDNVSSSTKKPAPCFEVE

[10] = target: T4, Heat shock factor protein 1 (Mus musculus, UniProt P38532); test: inhibition of MG132-induced HSE-luciferase signal, confirmation, cell-based, NIH3T3, luminescence, dose retest (AID 2382); format: functional;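 further: NIH3T3 fibroblasts with HSF1-driven luciferase reporter stressed by proteasome inhibitor MG132; luminescence from HSF1-driven luciferase expression after 8 hours of MG132 stress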
T4 sequence (P38532 whole entry): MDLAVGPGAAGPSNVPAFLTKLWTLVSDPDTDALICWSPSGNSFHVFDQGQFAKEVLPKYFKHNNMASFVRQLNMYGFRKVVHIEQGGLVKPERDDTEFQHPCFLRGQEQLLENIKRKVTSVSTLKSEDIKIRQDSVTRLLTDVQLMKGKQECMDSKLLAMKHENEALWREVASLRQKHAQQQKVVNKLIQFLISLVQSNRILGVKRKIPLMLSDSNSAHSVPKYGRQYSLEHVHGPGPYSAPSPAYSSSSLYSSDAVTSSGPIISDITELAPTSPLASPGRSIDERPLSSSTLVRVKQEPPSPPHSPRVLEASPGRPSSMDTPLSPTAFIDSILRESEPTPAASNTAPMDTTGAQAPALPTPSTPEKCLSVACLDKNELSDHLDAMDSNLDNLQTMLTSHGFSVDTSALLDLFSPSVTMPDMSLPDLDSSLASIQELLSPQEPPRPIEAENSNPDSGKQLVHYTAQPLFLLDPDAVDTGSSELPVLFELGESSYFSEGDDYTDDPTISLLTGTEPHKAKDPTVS

Cytochrome P450 2C19 = Cytochrome P450 2C19 (Homo sapiens, UniProt P33261); test: Cytochrome panel assay with activity outcomes. Panel member name: p450-cyp2c19 Compounds with AC50 equal or less than 10 uM are considered active; format: functional; settings: read-out: AC50
Cytochrome P450 1A2 = target: T5, Cytochrome P450 1A2 (Homo sapiens, UniProt P05177);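 further: PubChem cytochrome P450 panel assay, CYP1A2 panel member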
T5 sequence (P05177 whole entry): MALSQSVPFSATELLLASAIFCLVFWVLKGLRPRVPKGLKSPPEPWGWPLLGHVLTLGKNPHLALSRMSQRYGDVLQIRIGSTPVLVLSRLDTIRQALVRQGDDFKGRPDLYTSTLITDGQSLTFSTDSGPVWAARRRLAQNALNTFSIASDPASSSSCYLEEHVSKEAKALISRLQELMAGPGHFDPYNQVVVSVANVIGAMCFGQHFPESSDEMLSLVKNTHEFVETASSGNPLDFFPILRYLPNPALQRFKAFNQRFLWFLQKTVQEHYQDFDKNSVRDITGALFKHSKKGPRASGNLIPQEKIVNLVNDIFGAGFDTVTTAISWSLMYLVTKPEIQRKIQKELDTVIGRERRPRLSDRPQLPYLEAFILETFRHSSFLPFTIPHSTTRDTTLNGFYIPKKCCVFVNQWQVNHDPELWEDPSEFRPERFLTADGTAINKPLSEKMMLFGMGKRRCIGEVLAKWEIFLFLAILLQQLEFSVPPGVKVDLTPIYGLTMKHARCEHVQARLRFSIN

Cytochrome P450 3A4 = Cytochrome P450 3A4 (Homo sapiens, UniProt P08684);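 further: CYP3A4 tested as one member of a cytochrome P450 panel screen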
BJ [11] = test: cytotoxicity toward BJ-TERT fibroblasts, dose response, cell-based, RAS-independent, luminescence (AID 1933); format: functional; settings: Homo sapiens
[12] = cytotoxicity toward DRD oncogenic fibroblasts, dose response, cell-based, non-viral oncogenic, luminescence (AID 1934); format: functional; settings: Homo sapiens
BJ [13] = test: cytotoxicity toward Ras-transformed BJeLR fibroblasts, dose response, cell-based, alamar blue fluorescence, cherrypicked samples (AID 2631); format: functional; settings: Homo sapiens;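 further: confirmatory dose-response assay in RAS-dependent BJ fibroblasts engineered with TERT, LT and ST, with cytotoxicity read by fluorescence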
BJ [14] = test: cytotoxicity toward BJ-TERT-LT-ST fibroblasts, dose response, cell-based, RAS-independent, luminescence (AID 1935); format: functional; settings: Homo sapiens;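 further: BJ fibroblasts immortalized with TERT plus LT and ST oncogenes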
BJ [15] = test: cells; format: functional, cell-based; settings: Homo sapiens
SN12K1 = test: cells; format: functional; settings: Homo sapiens
[16] = Luminescence Cell-Based Dose Response HTS to Identify Inhibitors of 5'UTR Stem-Loop Driven Prion Protein mRNA Translation in H4 Neuroglioblastoma Cells. [Related pubchem assays: 1827 (Project Summary), 1813 (Primary HTS)]; format: functional
[17] = inhibitors of SNCA 5'UTR-driven reporter translation, confirmation, H4 neuroglioma cells, luminescence (AID 1988); format: functional, cell-based
P388 = test: cells; format: functional; settings: Mus musculus
[18] = inhibitors of firefly luciferase expression or activity, dose response, H4 neuroglioma cells, luminescence (AID 1990); format: functional, cell-based
P388/ADR = test: cells; format: functional; settings: Mus musculus

Chain of Beta-galactosidase (Q8VNN2 whole entry): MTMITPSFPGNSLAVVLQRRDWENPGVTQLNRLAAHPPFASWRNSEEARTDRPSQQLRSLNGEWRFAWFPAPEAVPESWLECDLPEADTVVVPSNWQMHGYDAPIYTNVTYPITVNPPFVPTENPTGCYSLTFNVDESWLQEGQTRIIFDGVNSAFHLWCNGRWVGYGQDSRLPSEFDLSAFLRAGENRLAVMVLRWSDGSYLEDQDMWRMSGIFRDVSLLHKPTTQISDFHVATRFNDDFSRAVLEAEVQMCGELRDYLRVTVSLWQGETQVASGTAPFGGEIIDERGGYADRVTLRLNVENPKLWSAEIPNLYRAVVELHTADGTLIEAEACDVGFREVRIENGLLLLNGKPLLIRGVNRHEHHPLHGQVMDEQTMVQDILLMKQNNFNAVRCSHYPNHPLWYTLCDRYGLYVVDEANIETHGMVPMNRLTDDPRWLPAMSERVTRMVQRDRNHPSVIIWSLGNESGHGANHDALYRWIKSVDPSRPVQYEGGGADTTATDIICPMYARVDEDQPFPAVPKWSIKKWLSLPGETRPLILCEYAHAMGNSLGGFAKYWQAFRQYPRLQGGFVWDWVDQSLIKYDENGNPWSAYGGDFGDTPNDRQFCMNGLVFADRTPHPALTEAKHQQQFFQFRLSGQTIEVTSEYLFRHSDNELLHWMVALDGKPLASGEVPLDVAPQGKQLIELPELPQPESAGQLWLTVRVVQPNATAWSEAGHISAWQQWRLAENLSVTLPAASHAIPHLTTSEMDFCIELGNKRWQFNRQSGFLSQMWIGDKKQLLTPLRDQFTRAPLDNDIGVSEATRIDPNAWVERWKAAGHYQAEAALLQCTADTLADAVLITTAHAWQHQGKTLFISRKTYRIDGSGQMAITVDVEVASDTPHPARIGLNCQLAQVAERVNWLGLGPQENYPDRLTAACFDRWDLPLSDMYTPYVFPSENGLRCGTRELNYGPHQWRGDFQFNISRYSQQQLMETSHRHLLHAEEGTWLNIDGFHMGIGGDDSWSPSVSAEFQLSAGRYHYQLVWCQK
Chain of Cytochrome P450 2C9 (P11712 whole entry): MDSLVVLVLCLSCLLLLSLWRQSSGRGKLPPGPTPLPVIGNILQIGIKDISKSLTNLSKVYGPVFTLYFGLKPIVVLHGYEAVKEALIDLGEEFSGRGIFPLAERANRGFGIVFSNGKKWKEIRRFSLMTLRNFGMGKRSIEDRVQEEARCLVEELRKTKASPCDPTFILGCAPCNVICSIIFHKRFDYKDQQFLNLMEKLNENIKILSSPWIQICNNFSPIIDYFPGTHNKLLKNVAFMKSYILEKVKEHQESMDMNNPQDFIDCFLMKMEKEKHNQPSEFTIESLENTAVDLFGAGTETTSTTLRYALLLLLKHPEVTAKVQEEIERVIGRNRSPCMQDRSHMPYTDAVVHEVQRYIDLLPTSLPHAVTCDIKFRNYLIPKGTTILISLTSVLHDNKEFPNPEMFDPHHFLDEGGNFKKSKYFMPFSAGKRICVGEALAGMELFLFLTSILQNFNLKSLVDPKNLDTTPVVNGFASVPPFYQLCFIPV
Chain of Cytochrome P450 2C19 (P33261 whole entry): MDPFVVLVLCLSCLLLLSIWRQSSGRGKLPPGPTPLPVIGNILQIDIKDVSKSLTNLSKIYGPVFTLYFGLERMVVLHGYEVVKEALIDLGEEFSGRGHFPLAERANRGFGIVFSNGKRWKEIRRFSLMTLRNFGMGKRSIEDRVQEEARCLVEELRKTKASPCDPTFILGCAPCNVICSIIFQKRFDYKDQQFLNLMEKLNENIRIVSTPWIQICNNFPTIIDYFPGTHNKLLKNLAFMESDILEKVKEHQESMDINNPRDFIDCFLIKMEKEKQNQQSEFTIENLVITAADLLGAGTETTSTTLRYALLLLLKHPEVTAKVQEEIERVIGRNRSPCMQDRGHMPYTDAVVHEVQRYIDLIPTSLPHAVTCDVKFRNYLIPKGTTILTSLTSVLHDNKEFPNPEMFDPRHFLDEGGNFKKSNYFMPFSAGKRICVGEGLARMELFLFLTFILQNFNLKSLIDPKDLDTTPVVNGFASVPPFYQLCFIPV
Chain of Cytochrome P450 3A4 (P08684 whole entry): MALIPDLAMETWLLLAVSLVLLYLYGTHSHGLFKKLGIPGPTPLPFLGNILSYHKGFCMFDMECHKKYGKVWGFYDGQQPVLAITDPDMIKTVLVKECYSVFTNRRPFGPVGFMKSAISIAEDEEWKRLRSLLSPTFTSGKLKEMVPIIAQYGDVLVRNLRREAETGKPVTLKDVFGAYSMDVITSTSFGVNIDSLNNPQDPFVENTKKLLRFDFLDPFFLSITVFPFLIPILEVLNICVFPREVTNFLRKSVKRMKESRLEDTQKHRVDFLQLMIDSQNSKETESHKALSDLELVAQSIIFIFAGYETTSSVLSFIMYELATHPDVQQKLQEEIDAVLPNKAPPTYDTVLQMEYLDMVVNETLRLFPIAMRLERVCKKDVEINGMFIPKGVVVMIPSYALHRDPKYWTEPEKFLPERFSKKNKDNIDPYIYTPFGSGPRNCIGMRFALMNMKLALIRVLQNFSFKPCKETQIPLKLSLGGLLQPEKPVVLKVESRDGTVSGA

## C[C@H]1CN([C@@H](C)CO)C(=O)Cc2cc(NC(=O)NC3CCCCC3)ccc2O[C@@H]1CN(C)Cc1ccc(Oc2ccccc2)cc1
[1]
  AC50: 6.74 µM (active)

## Cc1c(Cc2ccccc2)c(=O)oc2c(C)c(OCC(=O)NC[C@H]3CC[C@H](C(=O)O)CC3)ccc12
[2]
  IC50: 4.87 µM (active)

## Cc1onc(C(=O)Nc2sc3c(c2C#N)CCCC3)c1[N+](=O)[O-]
[3]
  EC50: > 75 µM (inactive)
[4]
  EC50: 1.59 µM (active)

## CN(C)S(=O)(=O)c1cccc(NC(=O)CSc2nc3c(cc2C#N)C(=O)CC(C)(C)C3)c1
[5]
  AC50: 9.02 µM (active)

## CC1CN(/N=C/c2ccc([N+](=O)[O-])o2)C(=N)O1 (stereo not given)
[5]
  AC50: 24.1 µM (active)

## Cc1cccc(C2NC(=O)c3c(sc(C)c3C)N2)c1O (stereo not given)
Cytochrome P450 2C9
  AC50: inconclusive

## Cc1cc(C)c2sc(N(CCCN(C)C)C(=O)c3ccc(S(=O)(=O)N4CCCc5ccccc54)cc3)nc2c1
[6]
  EC50: 12.2 µM (active)
[7]
  EC50: 0.452 µM (active)
[8]
  AC50: 4.46 µM (active)
Beta-galactosidase
  EC50: > 40 µM (inactive)
[9]
  IC50: > 40 µM (not active)

## COc1ccc(S(=O)(=O)Nc2ccc3c(c2)CC(=O)N([C@H](C)CO)C[C@@H](C)[C@@H](CN(C)Cc2ccc(C(=O)Nc4ccccc4N)cc2)O3)cc1
[1]
  AC50: 2.9 µM (active)

## COc1cccc2sc(Nc3nc(C)c(C(C)=O)s3)nc12
[6]
  EC50: 7.09 µM (active)
[7]
  EC50: 1.82 µM (active)
Beta-galactosidase
  EC50: > 40 µM (inactive)
[9]
  IC50: 23.3 µM (not active)

## CCOc1c2ccc(C(=O)NCc3ccccc3OC)cc2nn1CC
[10]
  EC50: > 195 µM (not active)
Cytochrome P450 2C19
  AC50: 39.8 µM (inconclusive)
Cytochrome P450 1A2
  AC50: 17.8 µM (inconclusive)
Cytochrome P450 3A4
  AC50: 15.8 µM (inconclusive)
Cytochrome P450 2C9
  AC50: inconclusive

## Cn1c(=O)c(C(=S)NC(=O)C2CC2)c(N)n(Cc2ccccc2)c1=O
Beta-galactosidase
  EC50: > 40 µM (inactive)
[9]
  IC50: > 40 µM (not active)

## CCCC(=O)Nc1ccc(C(=O)N/N=C/c2ccc([N+](=O)[O-])o2)cc1
BJ [11]
  EC50: 17.2 µM (active)
[12]
  EC50: 26.5 µM (active)
BJ [13]
  EC50: 0.123 µM (active)
BJ [14]
  EC50: 0.534 µM (inconclusive)
BJ [15]
  EC50: 0.38 µM (active)

## C[C@@H]1CCCCO[C@H](CN(C)C(=O)Nc2ccc(C(F)(F)F)cc2)[C@@H](C)CN([C@H](C)CO)C(=O)c2cc(NC(=O)C3CCCCC3)ccc2O1
[1]
  AC50: 1.12 µM (active)

## COc1ccc(S(=O)(=O)N(C)C[C@H]2Oc3ccc(NS(=O)(=O)c4ccc(Cl)cc4)cc3CC(=O)N([C@H](C)CO)C[C@H]2C)cc1
[1]
  AC50: 4.94 µM (active)

## O=C(NNC(=O)c1cc2ccccc2cc1O)NC1CCCCC1
[3]
  EC50: > 150 µM (inactive)
[4]
  EC50: > 38 µM (not active)

## O=C(COC(=O)c1cnccn1)c1cccc([N+](=O)[O-])c1
Beta-galactosidase
  EC50: > 40 µM (inactive)
[9]
  IC50: 13.6 µM (active)

## COc1ccccc1N1CCN(c2nc3c(C)cccn3c(=O)c2C=O)CC1
Cytochrome P450 2C19
  AC50: 1.12 µM (inconclusive)
Cytochrome P450 1A2
  AC50: 12.6 µM (inconclusive)
Cytochrome P450 2C9
  AC50: inconclusive

## CCOC(=O)/C=C1\CN(C(C)c2ccccc2)S(=O)(=O)c2ccccc21 (stereo not given)
[2]
  IC50: 12.3 µM (active)

## N=C1/C(=C/c2cccn2-c2ccc([N+](=O)[O-])cc2)C(=O)N=C2SC=CN12
[3]
  EC50: > 160 µM (inactive)
[4]
  EC50: 1.33 µM (active)

## Cc1c(NC(=S)/C=C2\N(C)c3ccccc3C2(C)C)c(=O)n(-c2ccccc2)n1C
Cytochrome P450 2C9
  AC50: inconclusive

## C[C@@H]1CCCCO[C@@H](CN(C)Cc2ccc(Cl)c(Cl)c2)[C@@H](C)CN([C@H](C)CO)C(=O)c2cc(NC(=O)NC3CCCCC3)ccc2O1
[1]
  AC50: 5.48 µM (active)

## COC(=O)C[C@](O)(CCCC(C)(C)O)C(=O)O[C@@H]1C(OC)=C[C@]23CCCN2CCc2cc4c(cc2[C@H]13)OCO4 [OMACETAXINE MEPESUCCINATE]
SN12K1
  GI50: 0.0115 µM (active)
[16]
  EC50: < 0.1 µM (active)
[17]
  EC50: < 0.1 µM (active)
P388
  GI50: 0.00388 µM (active)
BJ [13]
  EC50: 0.00488 µM (active)
[18]
  EC50: < 0.1 µM (active)
P388/ADR
  GI50: 0.247 µM (active)

## COc1ccc(S(=O)(=O)Nc2ccc3c(c2)CC(=O)N([C@@H](C)CO)C[C@H](C)[C@H](CN(C)Cc2ccc(C(=O)Nc4ccccc4N)cc2)O3)cc1
[1]
  AC50: 3.23 µM (active)

## C[C@@H]1CN([C@@H](C)CO)C(=O)Cc2cc(NC(=O)Cc3ccccc3)ccc2O[C@@H]1CN(C)Cc1ccc(Oc2ccccc2)cc1
[1]
  AC50: 2.61 µM (active)

## Cn1cc(-c2nc3cnc(Oc4cccc(Cl)c4)nc3n(CCC#N)c2=O)c2ccccc21
Cytochrome P450 1A2
  AC50: 2.51 µM (inconclusive)
Cytochrome P450 3A4
  AC50: 7.94 µM (inconclusive)
Cytochrome P450 2C9
  AC50: inconclusive
